Test results reported in patent US20080090916A1, “Compounds for Treating Urinary Incontinence” (priority 2005, published 2008).

What was measured:
[1] = tested on: Female land race pigs; experiment: In vivo pig urodynamic model (urodynamic and cardiovascular parameters)
Procedure: The animal model employed in this study was a slight modification of the previously described pig in vivo urodynamic model by Mills (1999). Surgical procedures were performed by Home Office personal licence holders. Female land race pigs of about 60 kg in weight were used for this study.
Pigs were initially sedated with ketamine hydrochloride 15 mg/kg (ketaset, Willows Francis Veterinary, Crawley, UK) and midazolam 0.2 mg/kg (Hypnovel, Roche Products Ltd, Welwyn Garden City, UK) through an intravenous central line. […] The induction phase of general anaesthesia was accomplished with 5% halothane (Fluothane, Astra ZenecaLtd, Macclesfield UK) in nitrous oxide 50%/oxygen 50%, delivered from an anaesthetic machine through a conical mask which was held over the snout of the pig. Following the induction phase, the maintenance phase of general anaesthesia was achieved using intravenous 1% propofol at the rate of 200 mg/hr.
At the start of surgery, the pig was initially placed in the left lateral position allowing access to the lumbar dorsal region. A stab incision for each catheter was made in the lumbar dorsal midline, as well as a single small right iliac fossa incision. Using a specially designed trocar, the peritoneal catheter and the proximal portions of the vesical catheters were tunneled from the dorsal lumbar incision to the right iliac fossa, such that the cuff at the proximal end finished in a small subcutaneous pocket. Each incision was approximated with two interrupted 2/0 nylon sutures, taking care to avoid occlusion of the catheters. The pig was then turned into a supine position and a lower abdominal incision made. Using a Spencer-Well forceps, the peritoneum and abdominal wall muscles were pierced from inside out and three catheters grabbed and pulled into the peritoneal cavity. The longer peritoneal catheter was placed in the vesico-vaginal pouch. Two purse-string sutures of 2/0 silk were placed in the apex of the bladder, and stab incisions made through the centre of each of these. The distal shorter halves of the vesical lines were introduced into the bladder through these incisions and the purse-strings tied, ensuring that the lumen of each catheter remained patent. Each side of the small pieces of silastic sheet on these catheters was sutured to the serosa of the bladder, in order to provide further security against subsequent line displacement. These distal portions of the two vesical catheters were then connected to the proximal portions using the nylon connectors. The abdominal wound was closed en masse with 1 nylon, followed by 2/0 chromic catgut to fat and interrupted 2/0 nylon to the skin. The right iliac fossa wound was closed in layers with vicryl to internal oblique and external oblique and interrupted 2/0 nylon to the skin. One of the vesical lines was attached to another piece of tubing externally and left on free drainage for 48 hours to allow the bladder to heal.
Following induction of anaesthesia, the animal was placed in a supine position and covered with a warm water blanket to maintain body temperature. A small incision was then made in the left groin area through which the left femoral artery was identified by palpation. The artery was then cannulated with an arterial […] cannulae (Abbocath-T, Abbott Ireland, and Sligo, Ireland) which was then connected to a pressure transducer for the measurement of arterial pressure. Vesico-urethral junction cystometry was obtained using a catheter mounted with a microtranducer (Gaeltec LTD, Isle of Skye). To cannulate the urethra, the vagina was opened with a speculum to expose the external urethral orifice which is high up in the anterior wall of the vagina. Having identified the external orifice the catheter was then inserted into the urethra by direct vision, thereafter it was gradually withdrawn until it was positioned in the vesico-urethral junction. […]

[2] = Solubility concentration of saturated solutions determined by HPLC; type: physicochemical
Procedure: The tightness of the cells and absence of air bubbles in the receptor phase was monitored and given at each sampling point.
So, from manufacturing of the solutions, the amount of the compound of formula (Ia) per solvent volume was known (documentation by balance print out). That amount was named a saturated solution. Afterwards the saturated solution was centrifuged and the solubility concentration of the clear supernatant of the solution was determined quantitatively by HPLC. The saturation factor was calculated from the ratio of saturated solution:solubility concentration. A high ratio represented a high level of infinite dose.

[3] = 1 mg/kg iv bolus, mean of three voiding cycles

COc1ccc(OC)c([C@@H](O)[C@H](C)NC(=O)CC[C@H](N)C(=O)O)c1 [compound of formula (Ia), (S)-2-Amino-4-[(1S,2R)-2-(2,5-dimethoxyphenyl)-2-hydroxy-1-methyl-ethylcarbamoyl]butyric acid]
VUJ threshold pressure, greater than control runs ([1]; 1 mg/kg iv): about 31%
duration of voiding, change from control ([1]; 1 mg/kg iv): 4.1%
fall in deutrusor voiding pressure from the control runs ([1]; 1 mg/kg iv): 36.5%
flow rate, change from control ([1]; 1 mg/kg iv): 2.4%
voiding intervals, change from control ([1]; 1 mg/kg iv): −4.7%
deutrusor voiding pressure [1, 3]: 28±10.11 cmH2O
intravesical threshold voiding pressure [1, 3]: 16.23±1.16 cmH2O
voiding pressure during the voiding phase [1, 3]: 41.1±8.3 cmH2O
bladder intravesical baseline pressure ([1]; 1 mg/kg iv bolus, mean of three voiding cycles, one animal): 8.53±0.34 cmH2O
reduction in residual volume ([1]; 1 mg/kg iv, versus control): 31%
rise in the threshold VUJ voiding pressure ([1]; 1 mg/kg iv, versus control): 15%
VUJ baseline pressure ([1]; 1 mg/kg iv, versus control runs): transient rise
arterial pressure, change from the control ([1]; 1 mg/kg iv, arterial line flushed after dosing): 15%
voiding efficiency ([1]; 1 mg/kg iv, voided volume as percentage of bladder capacity): 95%
saturation concentration in the acceptor medium ([2]; 0.9% NaCl 80%, PEG 400 20%, 0.1% NaN3): 130 mg/mL
solubility in Ethanol ([2]; Ethanol): high solubility
water solubility ([2]; water): high
solubility in both media ([2]; water and DMSO): high solubility
